# Source: paper PMC10709440, “High-throughput ligand profile characterization in novel cell lines expressing seven heterologous insect olfactory receptors for the detection of volatile plant biomarkers” (Scientific Reports, 2023)
# Where two headings read alike, the source gives them in different places.
# Experiments:
# [1] = target: T1, Drosophila OR85b (Drosophila melanogaster, UniProt Q9VHQ7); assay: Calcium ion fluorescence (GCaMP6) assay, OR85b stable HEK293 cell line; assay type: cell-based; details: for OR85b response (VUAA1-normalized) at 1 μM / OR85b response (VUAA1-normalized) at 10 μM / OR85b response (VUAA1-normalized) at 100 μM / Average response: OR85b cell line; for OR85b response (VUAA1-normalized) at 1 μM: VOC concentration 1 μM; for OR85b response (VUAA1-normalized) at 10 μM: VOC concentration 10 μM; for OR85b response (VUAA1-normalized) at 100 μM: VOC concentration 100 μM; for Average response: VUAA1-normalized response, mean of biological replicates
# T1 construct: expressed in transfected cells
# T1 sequence (Q9VHQ7 1-390): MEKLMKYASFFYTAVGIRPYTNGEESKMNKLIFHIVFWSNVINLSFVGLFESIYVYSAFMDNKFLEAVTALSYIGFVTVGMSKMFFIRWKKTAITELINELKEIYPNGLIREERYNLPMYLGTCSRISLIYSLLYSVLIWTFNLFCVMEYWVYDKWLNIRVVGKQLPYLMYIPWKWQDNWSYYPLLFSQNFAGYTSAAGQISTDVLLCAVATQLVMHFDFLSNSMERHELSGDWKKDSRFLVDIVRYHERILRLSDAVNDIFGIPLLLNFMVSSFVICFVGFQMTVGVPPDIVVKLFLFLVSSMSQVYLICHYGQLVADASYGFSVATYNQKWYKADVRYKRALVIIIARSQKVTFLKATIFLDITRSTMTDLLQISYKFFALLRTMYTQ
# T1 sequence (Q9VNB5 1-486 partner): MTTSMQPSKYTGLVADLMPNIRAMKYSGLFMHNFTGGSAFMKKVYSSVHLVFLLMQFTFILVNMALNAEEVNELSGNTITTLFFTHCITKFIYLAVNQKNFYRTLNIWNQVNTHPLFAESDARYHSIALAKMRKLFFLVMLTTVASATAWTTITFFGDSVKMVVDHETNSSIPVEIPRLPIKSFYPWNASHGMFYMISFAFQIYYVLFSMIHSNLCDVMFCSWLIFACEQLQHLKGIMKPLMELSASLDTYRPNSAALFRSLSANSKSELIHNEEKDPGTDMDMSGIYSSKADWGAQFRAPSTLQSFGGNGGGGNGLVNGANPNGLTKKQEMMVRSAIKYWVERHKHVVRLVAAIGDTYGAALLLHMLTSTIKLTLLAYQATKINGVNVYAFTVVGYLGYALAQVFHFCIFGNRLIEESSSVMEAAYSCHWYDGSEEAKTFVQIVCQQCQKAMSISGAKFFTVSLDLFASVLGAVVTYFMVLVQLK
# Method in brief: (§1)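 Responses are VUAA1-normalized ΔF: each VOC-evoked calcium signal, (FMAX−F0)/F0 over 30 s after injection, divided by the same line's mean 50 µM VUAA1 response. Cells were doxycycline-induced HEK293 with GCaMP6 and the cognate Drosophila OR, in HEPES buffer pH 7.3; ligands tested 0.01–100 μM.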
# [2] = target: T2, Drosophila OR10a (Drosophila melanogaster, UniProt Q9VYZ1); assay: Calcium ion fluorescence (GCaMP6) assay, OR10a stable HEK293 cell line; assay type: cell-based; details: for OR10a response (VUAA1-normalized) at 1 μM / OR10a response (VUAA1-normalized) at 10 μM / OR10a response (VUAA1-normalized) at 100 μM: OR10a cell line; for OR10a response (VUAA1-normalized) at 1 μM: VOC concentration 1 μM; for OR10a response (VUAA1-normalized) at 10 μM: VOC concentration 10 μM; for OR10a response (VUAA1-normalized) at 100 μM: VOC concentration 100 μM
# T2 construct: expressed in transfected cells
# T2 sequence (Q9VYZ1 1-406): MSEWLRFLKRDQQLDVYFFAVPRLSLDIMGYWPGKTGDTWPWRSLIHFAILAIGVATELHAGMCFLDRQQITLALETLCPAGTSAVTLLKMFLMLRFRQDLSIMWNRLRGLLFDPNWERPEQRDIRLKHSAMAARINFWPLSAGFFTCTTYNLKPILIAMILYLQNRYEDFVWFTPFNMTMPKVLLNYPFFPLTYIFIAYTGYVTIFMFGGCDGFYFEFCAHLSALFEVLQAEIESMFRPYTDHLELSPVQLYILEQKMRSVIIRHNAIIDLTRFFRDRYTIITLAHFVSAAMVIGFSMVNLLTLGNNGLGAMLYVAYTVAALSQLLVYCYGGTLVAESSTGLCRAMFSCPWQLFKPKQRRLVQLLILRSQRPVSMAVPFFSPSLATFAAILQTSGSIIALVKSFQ
# T2 sequence (Q9VNB5 1-486 partner): T1 sequence (Q9VNB5 1-486 partner)
# Method in brief: as §1
# [3] = ligand concentration 1 (unit not given), threshold 0.05, below shown as 0
# [4] = ligand concentration 10 (unit not given), threshold 0.05, below shown as 0
# [5] = ligand concentration 100 (unit not given), threshold 0.05, below shown as 0
# [6] = HEK293, read-out: OR85b response (VUAA1-normalized response)
# [7] = HEK293, read-out: OR10a Average response (VUAA1-normalized), 1 μM VOC, 50 μM VUAA1 = 1, responses not exceeding 0.05 considered 0
# [8] = HEK293, read-out: OR10a Average response (VUAA1-normalized), 10 μM VOC, 50 μM VUAA1 = 1, responses not exceeding 0.05 considered 0
# [9] = HEK293, read-out: OR10a Average response (VUAA1-normalized), 100 μM VOC, 50 μM VUAA1 = 1, responses not exceeding 0.05 considered 0
# [10] = ligand concentration 1 (unit not given), 0.05 threshold, values below shown as 0
# [11] = ligand concentration 10 (unit not given), 0.05 threshold, values below shown as 0
# [12] = ligand concentration 100 (unit not given), 0.05 threshold, values below shown as 0
# [13] = HEK293, read-out: OR85b Average response (VUAA1-normalized)
smiles,measurement,setting,value
C=CC(C)(O)CCC=C(C)C (stereo not drawn) [linalool],OR85b response (VUAA1-normalized) at 1 μM,[1],0.00
same,OR85b response (VUAA1-normalized) at 10 μM,[1],0.00
same,OR85b response (VUAA1-normalized) at 100 μM,[1],0.06
same,Average response,[1]; cc. 1 µM,0.045
same,Average response,[1]; cc. 10 µM,0.00
same,Average response,[1]; cc. 100 µM,0.06
same,DF norm AVERAGE OR85b,[1]; [3],0
same,DF norm AVERAGE OR85b,[1]; [4],0
same,DF norm AVERAGE OR85b,[1]; [5],0.06299
same,activation at 1 µM,"[2]; HEK293, 1 μM VOC, 50 μM VUAA1 = 1, responses not exceeding 0.05 considered 0, read-out: OR10a Average response (VUAA1-normalized)",2%
same,activation at 10 µM,"[2]; HEK293, 10 μM VOC, 50 μM VUAA1 = 1, responses not exceeding 0.05 considered 0, read-out: OR10a Average response (VUAA1-normalized)",7%
same,activation at 100 µM,"[2]; HEK293, 100 μM VOC, 50 μM VUAA1 = 1, responses not exceeding 0.05 considered 0, read-out: OR10a Average response (VUAA1-normalized)",0%
same,OR10a response (VUAA1-normalized) at 1 μM,[2],0.00
same,OR10a response (VUAA1-normalized) at 10 μM,[2],0.07
same,OR10a response (VUAA1-normalized) at 100 μM,[2],0.00
same,DF norm AVERAGE OR10a,[2]; [3],0
same,DF norm AVERAGE OR10a,[2]; [4],0.06934
same,DF norm AVERAGE OR10a,[2]; [5],0
CCOC(=O)c1ccccc1 [ethyl benzoate],activation at 1 µM,[1]; [6],0%
same,activation at 10 µM,[1]; [6],0%
same,activation at 100 µM,[1]; [6],0%
same,Average response,[1]; cc. 1 µM,0.0211
same,Average response,[1]; cc. 10 µM,0.0371
same,Average response,[1]; cc. 100 µM,0.0138
same,DF norm AVERAGE OR85b,[1]; [3],0
same,DF norm AVERAGE OR85b,[1]; [4],0
same,DF norm AVERAGE OR85b,[1]; [5],0
same,activation at 1 µM,[2]; [7],29%
same,activation at 10 µM,[2]; [8],45%
same,activation at 100 µM,[2]; [9],49%
same,activation at 1 µM,"[2]; HEK293, read-out: OR10a response (VUAA1-normalized response), VOC concentration 1 μM",29%
same,activation at 10 µM,"[2]; HEK293, read-out: OR10a response (VUAA1-normalized response), VOC concentration 10 μM",45%
same,activation at 100 µM,"[2]; HEK293, read-out: OR10a response (VUAA1-normalized response), VOC concentration 100 μM",49%
same,DF norm AVERAGE OR10a,[2]; [3],0.2908
same,DF norm AVERAGE OR10a,[2]; [4],0.4538
same,DF norm AVERAGE OR10a,[2]; [5],0.4934
CC/C=C\CCO [Z3-hexenol],Average response,[1]; cc. 1 µM,0.0533
same,Average response,[1]; cc. 10 µM,0.0426
same,Average response,[1]; cc. 100 µM,0.00
same,DF norm AVERAGE OR85b,[1]; [10],0.05333
same,DF norm AVERAGE OR85b,[1]; [11],0
same,DF norm AVERAGE OR85b,[1]; [12],0
same,OR10a Average response (VUAA1-normalized),"[2]; 1 μM VOC, 50 μM VUAA1 = 1, responses not exceeding 0.05 considered 0",0.17
same,OR10a Average response (VUAA1-normalized),"[2]; 10 μM VOC, 50 μM VUAA1 = 1, responses not exceeding 0.05 considered 0",0.19
same,OR10a Average response (VUAA1-normalized),"[2]; 100 μM VOC, 50 μM VUAA1 = 1, responses not exceeding 0.05 considered 0",0.10
same,DF norm AVERAGE OR10a,"[2]; ligand concentration 1 (unit not given), […]",0.1736
same,DF norm AVERAGE OR10a,"[2]; ligand concentration 10 (unit not given), […]",0.1946
same,DF norm AVERAGE OR10a,"[2]; ligand concentration 100 (unit not given), […]",0.1046
Cc1ccccc1 [toluene],activation at 1 µM,[1]; [13],8%
same,activation at 10 µM,[1]; [13],7%
same,activation at 100 µM,[1]; [13],11%
same,OR85b response (VUAA1-normalized) at 1 μM,[1],0.0843
same,OR85b response (VUAA1-normalized) at 10 μM,[1],0.07
same,OR85b response (VUAA1-normalized) at 100 μM,[1],0.11
same,Average response,[1]; cc. 1 µM,0.0843
same,Average response,[1]; cc. 10 µM,0.07
same,Average response,[1]; cc. 100 µM,0.11
same,DF norm AVERAGE OR85b,[1]; [10],0.08429
same,DF norm AVERAGE OR85b,[1]; [11],0.067
same,DF norm AVERAGE OR85b,[1]; [12],0.1125
same,activation at 1 µM,[2]; [7],3%
same,activation at 10 µM,[2]; [8],0%
same,activation at 100 µM,[2]; [9],7%
same,OR10a response (VUAA1-normalized) at 1 μM,[2],0.00
same,OR10a response (VUAA1-normalized) at 10 μM,[2],0.00
same,OR10a response (VUAA1-normalized) at 100 μM,[2],0.07
same,DF norm AVERAGE OR10a,[2]; [10],0
same,DF norm AVERAGE OR10a,[2]; [11],0
same,DF norm AVERAGE OR10a,[2]; [12],0.07043
